Test results from a melting point compilation (Tetko et al.; mined from patent text by program, amines drawn as free bases though some values may be those of a salt).

SMILES	melting point
O=C(N[C@H](Cc1cccc(OC(F)(F)C(F)F)c1)[C@@H](O)c1csc(-c2ccccc2)n1)c1ccc(F)c2ccccc12 (racemic)	148 to 150 °C
O=C(O)c1cc2c(-c3cccs3)nccc2[nH]c1=O	278 °C
N#CC(N)c1ccc(F)cc1F (stereo not drawn)	52 °C
O=C(Nc1ccc(S(=O)(=O)N2CCOCC2)cc1)c1cc(Cl)ccc1[N+](=O)[O-]	243 to 245 °C
COC(=O)c1ccoc1CCNC(=O)C[C@H]1O[C@H](c2cccc(OC)c2OC)c2cc(Cl)ccc2N(CC(C)(C)CO)C1=O	81 to 83 °C
COc1ccc2c(c1)c1c(n2C(=O)c2ccc(Cl)cc2)CCC(C(=O)O)C1 (stereo not drawn)	269 to 273 °C
Cc1ccc(S(=O)(=O)Cc2ccc(C(C)(C)N)cc2)cc1C	129 to 130 °C
COc1ccc(C(C)=NOCCOc2ccc(CC3SC(=O)NC3=O)cc2)cn1 (stereo not drawn)	148 to 149 °C
CC1=CC(=C(CC(C)CC(C)(C)C)c2cc(C)cc(C)c2OCc2ccccc2)C(O)C(C)=C1 (stereo not drawn)	125 to 126 °C
O=C(NC(=O)c1c(F)cccc1F)Nc1ccc(SC(F)(F)F)cc1F	173 to 175 °C
O=C(O)[C@H](Cc1c[nH]c2ccccc12)NC(=O)C1(NC(=O)[C@@H](S)C2CCOCC2)CCCC1	212 to 215 °C
CCCOc1ncc(NS(=O)(=O)CC(=O)O)cc1-c1nc2c(CCC)nn(C)c2c(=O)[nH]1	267 to 270 °C
CC(=O)N1N=C(c2ccncc2)OC1c1ccc(Cl)c([N+](=O)[O-])c1 (stereo not drawn)	122 °C
O=C(O)c1cn(CCO)c2cc(Cl)c(F)cc2c1=O	266 °C
Clc1ncc(C(c2ccccc2)c2ccccc2)cc1C(c1ccccc1)c1ccccc1	131 to 133 °C
Cc1c(NC(=O)c2ccc(-c3ccc4c(c3)CCO4)cc2F)ccc2cc(CN3CCCC3)cnc12	181 to 182 °C
COCc1cccc(OCCc2cnc(S)[nH]c2=O)c1	117 to 119 °C
CCCN=C1SC(=CC(=O)O)C(=O)N1CCC	101 to 103 °C
O=C(Sc1ccccc1)c1cc2cc(CCl)ccc2oc1=O	164 to 166 °C
CCc1nc(C)c(Cc2c(O)ccc3ccccc23)[nH]1	166 °C
[N-]=[N+]=NCCCn1cnc(-c2ccc(F)cc2)c1-c1ccncc1	64 to 65 °C
CC(SSc1ccccc1C(=O)Nc1ccc(S(N)(=O)=O)cc1)C(=O)O (stereo not drawn)	268 to 270 °C
O=C(O)CCCNc1ccccc1CNC(=O)C1Cc2ccccc2N1S(=O)(=O)c1ccc(-c2cccc(C(F)(F)F)c2)cc1 (stereo not drawn)	77 to 81 °C

SMILES	melting point
CC1(CCOC2CCCCO2)C(=O)NNC1=O (stereo not drawn)	179 to 180 °C
Cc1cnc(NC(=O)C2c3ccccc3Oc3ccccc32)o1	217 to 220 °C
CC(C)Sc1nc(-n2ccnc2)c(I)c(C(F)(F)F)n1	118 to 120 °C
CC(=O)NCc1cccc(-c2csc(N=C(N)N)n2)n1	198 to 200 °C
O=C1NC(=O)C(Cc2ccc(N3CCC(NC[C@H](O)c4ccc5nnnn5c4)CC3)cc2)S1 (stereo partly drawn)	130 to 132 °C
COc1ccc(CCNC(=O)C2CCC2)cc1	118 to 120 °C
CCCCC(Cc1cc(C(C)(C)C)c(O)c(C(C)(C)C)c1)(C(=O)OC1CC(C)(C)N(C(C)=O)C(C)(C)C1)C(=O)OC1CC(C)(C)N(C(C)=O)C(C)(C)C1	120 to 124 °C
CC(=O)Nc1c(Cl)cc2c(=O)c(C(=O)O)cn3c2c1CCC3C (stereo not drawn)	234 to 236 °C
CCN(CC)C(=O)c1ccc2ccccc2c1-c1cccc(OC)c1	91 to 93 °C
Cc1cncc2c1C(=N)N(Cc1ccccc1)S2(=O)=O	37 to 39 °C
CC(C)[C@H](OCc1ccccc1F)[C@H]1[C@H]([N+](=O)[O-])[C@H](c2ccccc2)N[C@@H]1C(=O)NCC(=O)O	72 to 73 °C
COC(=O)C(=CNC1CC1)C(=O)c1cc(F)c(Cl)cc1Cl	150 to 151 °C
CCCCCCS(=O)(=O)c1nn2c(=O)c(C(C)=O)cnc2s1	124 to 125 °C
CCOC(=O)c1cn(C2CC2)c2c(F)c(NCCCO)c(F)cc2c1=O	160 to 162 °C
O=C(O)COc1ccccc1Cn1nc(-c2cccs2)c(Cc2cc3c(cc2Cl)OCO3)c1C(=O)O	> 260 °C
O=C(N[C@H]1CCCNC1=O)c1cc(F)ccc1F	140 to 142 °C
CCN(CC)CC1CCCCN1C(=O)c1ccc(-c2[nH]nc3c2C(=O)c2c(NC(=O)NN4CCOCC4)cccc2-3)s1 (stereo not drawn)	210 to 212 °C
O=c1cc(Nc2ccccc2)[nH]n1-c1ccc(S(=O)(=O)O)cc1	290 to 291 °C
Clc1ncn(COc2ccc(Oc3ccccc3)cc2)c1Cl	82 to 83 °C
Cc1ccccc1NC(=O)Nc1ccc(C(=O)N2Cc3cccn3Cc3ccccc32)cc1	155 to 158 °C
CSc1cnn(-c2c(Cl)cc(C(F)(F)F)cc2Cl)c1N	106 to 108 °C
CCOC(=O)[C@]1(O)C=C[C@@H](NC(C)=O)[C@@H]2OC(C)(C)O[C@@H]21	97 to 99 °C
CCCN1Cc2ccccc2C(=O)c2cc(CC(=O)O)ccc21	126 °C

SMILES	melting point
CC1(C)OC[C@H](Cc2ccccc2)N1C(=O)C(=O)c1ccn(-c2ccc(-c3ccccc3)cc2)c1	150 to 152 °C
CCNc1nc(C)c(-c2ccnc(Nc3ccc(N4CCOCC4)c(C)c3)n2)s1	213 to 214 °C
CC(C)c1cc(CN2C(=O)C3(COc4cc5c(cc43)OCO5)c3ccccc32)on1 (stereo not drawn)	132 to 136 °C
CCOc1nc(-c2ccc(F)cc2C)c2ccc(=O)n(-c3ccccc3F)c2n1	137 to 139 °C
CN1CCC(c2ccc(F)cc2)(C(C)(C)O)CC1	165 to 166 °C
Oc1ccc(-c2ncc3ncc(-c4ccoc4)cc3n2)cc1	> 268 °C
O=C1NC(=O)C(Cc2ccc3c(c2)CN(c2ccccn2)CCO3)S1 (stereo not drawn)	180 to 181 °C
COc1cccc2c1nc(C(F)F)n2-c1nc(Nc2ccc(N)nc2)nc(N2CCOCC2)n1	267 to 270 °C
CC1Cc2cc(F)ccc2C1=Cc1ccc(S(C)(=O)=O)cc1 (stereo not drawn)	177 °C
Cc1cc(-n2cnnn2)cc(I)c1N	172 to 175 °C
COc1cc(C(=O)COC(C)=O)ccc1OCCCN1CCC(C(O)(c2ccc(F)cc2)c2ccc(F)cc2)CC1	138 to 140 °C
CN(C)CCNC(=O)c1ccc(Br)cc1	67 to 69 °C
COc1ccc(-n2nc(NC(=O)N(C)C)cc2-c2ccc(OCCO)cc2)cc1	167 to 168 °C
CCOC(=O)NNc1cccc(Cl)n1	139 to 141 °C
Nc1nc2ccccc2n1-c1cccc(-c2cccs2)c1	142 to 144 °C
CCCCCCCNC1=CC(=O)c2c(OC)ccc(OC)c2C1=O	74 to 75 °C
COc1cc(C)nc(C#N)n1	80 to 85 °C
COc1ccc(-c2csc(Nc3cccnc3)n2)cc1OC	251 to 254 °C
CC(=O)CCCCCCCc1ccc(O)c(O)c1	73 to 75 °C
COc1cc2c(Nc3ccc(Cl)cc3F)ncnc2cc1OCCCNC(=O)OCC(C)C	136 to 137 °C
O=C(O)Cc1ccc2c(c1)Cc1ccccc1C(=O)C2	186 to 188 °C
COCOc1ccc(CCCOc2nn(Cc3ccccc3)cc2CC(=O)O)c(Oc2ncc(C(F)(F)F)cc2Cl)c1	108 to 109 °C
